Converted amounts (≈) assume the structure as drawn. Read-outs that look alike come from different tables or passages of the source.
Key:
[1] = test system: E. faecalis ATCC 29212 VSE; assay: MIC broth microdilution; format: cell-based; details: Enterococcus faecalis, ATCC29212
Description: (§1) Twenty-four test agents were shipped to Micromyx and stored at −20° C. until assayed. The compounds were dissolved in 100% DMSO at 6.46 mg/mL prior to testing. Comparator drugs were supplied by Micromyx and were handled as described below:
(§2) The test organisms for the assay were recent clinical isolates or reference strains acquired from the American Type Culture Collection (ATCC; Manassas, Va.). Upon receipt, the isolates were streaked onto Trypticase Soy Agar II+5% sheep blood (TSAB). Colonies were harvested from the plates and a cell suspension was prepared in Trypticase Soy Broth containing cryoprotectant. Aliquots were then frozen at −80° C. Prior to the assay, the frozen seeds of all bacterial isolates to be tested were thawed and streaked for isolation onto TSAB (BD/BBL, Sparks, Md.; Lot No. 9011894), and were incubated overnight at 35° C.
(§3) The test medium for all isolates was cation-adjusted Mueller Hinton broth (CAMHB; BD/BBL; Lot No. 8190586). CAMHB (Cation Adjusted Mueller Hinton Broth) was supplemented with 3% (v/v) lysed horse blood (LHB; Hemostat, Dixon, Calif.; Lot No. 474990) for the testing of streptococci.
(§4) MIC values were determined using a broth microdilution method as recommended by CLSI. Automated liquid handlers (Multidrop 384, Labsystems, Helsinki, Finland; Biomek 2000 and Biomek F/X, Beckman Coulter, Fullerton Calif.) were used to conduct serial dilutions and make liquid transfers.
(§5) The wells of standard 96-well microdilution plates (Costar 3795, Corning Inc., Corning, N.Y.) were filled with 150 μL of the appropriate diluent in columns 2-12 on the Multidrop 384 (DMSO for the thiostrepton analogs, deionized H2O for vancomycin and ceftazidime). These plates were used to prepare the drug “mother plate” which provided the serial drug dilutions for the replicate “daughter plates”. The compounds (300 μL) were dispensed at 101× the highest concentration to be tested into the appropriate row of the “mother plate”. The Biomek 2000 was used to transfer 150 μL of each stock solution from the wells in Column 1 of the mother plate to make ten subsequent 2-fold serial dilutions. The wells of Column 12 contained no drug and served as the organism growth control wells. The daughter plates were loaded with 190 μL of test medium using the Multidrop 384.
(§6) The daughter plates were prepared on the Biomek F/X instrument which transferred […] of drug solution from each well of the mother plate to each corresponding well of each daughter plate in a single step. The wells of the daughter plates ultimately contained 190 μL of media, 2 μL of drug solution, and 10 μL of inoculum prepared as described below. The final concentration of DMSO (if used as a solvent) in the test well was 1%.
(§7) A standardized inoculum of each organism was prepared per CLSI methods. A suspension of organisms from a fresh plate was prepared in CAMHB to equal the turbidity of a 0.5 McFarland standard. The suspensions were diluted 1:20 in CAMHB, or in the case of streptococci CAMHB with LHB. The inoculum for each organism was dispensed into sterile reservoirs divided by length (Beckman Coulter), and the Biomek 2000 was used to inoculate the plates. Daughter plates were placed on the Biomek 2000 work surface reversed so that inoculation took place from low to high drug concentration. The Biomek 2000 delivered 10 μL of standardized inoculum into each well. These dilutions yielded a final cell concentration in the daughter plates of approximately 5.0×10^5 CFU/mL.
(§8) Plates were stacked 3 high, covered with a lid on the top plate, placed in plastic bags, and incubated at 35° C. for 16-20 hr for all organisms except streptococci which were incubated for 20-24 hr. Following incubation, the microplates were removed from the incubator and viewed from the bottom using a plate viewer. The MIC was read and recorded as the lowest concentration of drug that inhibited visible growth of the organism. […]

E. coli ATCC 25922 = assay: MIC broth microdilution; format: cell-based; details: Escherichia coli, ATCC25922
Description: as §1, §2, §3, §4, §5, §6, §7, §8

[2] = test system: S. pneumoniae ATCC 49619 PISP; assay: MIC broth microdilution; format: cell-based; details: Streptococcus pneumoniae, ATCC49619, 20 h
Description: as §1, §2, §3, §4, §5, §6, §7, §8

S. pyogenes ATCC 19615 = assay: MIC broth microdilution; format: cell-based; details: Streptococcus pyogenes, ATCC19615, 20 h
Description: as §1, §2, §3, §4, §5, §6, §7, §8

E. faecium MMX 485 VRE = assay: MIC broth microdilution; format: cell-based; details: Enterococcus faecium
Description: as §1, §2, §3, §4, §5, §6, §7, §8

E. faecalis MMX 486 VRE = assay: MIC broth microdilution; format: cell-based; details: Enterococcus faecalis
Description: as §1, §2, §3, §4, §5, §6, §7, §8

E. faecium MMX 708 VSE = assay: MIC broth microdilution; format: cell-based; details: Enterococcus faecium, MMX708VSE
Description: as §1, §2, §3, §4, §5, §6, §7, §8

[3] = test system: S. aureus ATCC 29213 MSSA; assay: MIC broth microdilution; format: cell-based; details: Staphylococcus aureus
Description: as §1, §2, §3, §4, §5, §6, §7, §8

S. aureus MMX 8088 MRSA = assay: MIC broth microdilution; format: cell-based; details: Staphylococcus aureus
Description: as §1, §2, §3, §4, §5, §6, §7, §8

[4] = Aqueous solubility analysis in MOPS buffer; format: physicochemical; details: thermodynamic from solid, after 24 hours in 10 mM aqueous MOPS buffer, pH 7.2
Description: A 2 dram vial was loaded with ˜0.5 mg of a thiostrepton derivative and suspended in ˜4 mL of aqueous 10 mM MOPS buffer (pKa 7.2). The suspension was stirred vigorously for 24 h to ensure equilibration, then filtered through a […] centrifuge filtration unit. A 3.0 mL aliquot was concentrated, and the dried residue was diluted with 0.30 mL of 1:1 1,4-dioxane/H2O (10× original concentration necessitated by detection limits). The total UV absorbance (200-300 nm) was measured in triplicate by UPLC runs with a photodiode array detector. A calibration curve for each compound was created using data points from 3 trials each of concentrations in 1:1 1,4-dioxane/H2O ranging from […]. These concentrations were plotted against their respective average absorbances. The experimental concentration of each compound was calculated by dividing the found μg/mL value by the residue concentration factor of 10 to yield the actual solubility value.

[5] = E. faecalis ATCC 29212 VSE, CAMHB, read-out: MIC
[6] = E. coli ATCC 25922, CAMHB, read-out: MIC
[7] = S. pneumoniae ATCC 49619 PISP, CAMHB with 3% lysed horse blood, read-out: MIC
[8] = S. pyogenes ATCC 19615, CAMHB with 3% lysed horse blood, read-out: MIC
[9] = E. faecium MMX 485 VRE, CAMHB, read-out: MIC
[10] = E. faecalis MMX 486 VRE, CAMHB, read-out: MIC
[11] = E. faecium MMX 708 VSE, CAMHB, read-out: MIC
[12] = S. aureus ATCC 29213 MSSA, CAMHB, read-out: MIC
[13] = S. aureus MMX 8088 MRSA, CAMHB, read-out: MIC

## C=C(NC(=O)c1csc(C2=N[C@@H]3c4csc(n4)[C@H]4NC(=O)c5csc(n5)[C@H]([C@](C)(O)[C@@H](C)O)NC(=O)C5CSC(=N5)/C(=C/C)NC(=O)[C@H]([C@@H](C)O)NC(=O)c5csc(n5)[C@]3(CC2)NC(=O)[C@H](C)NC(=O)C(=C)NC(=O)[C@H](C)NC(=O)[C@H]([C@@H](C)CC)N[C@@H]2C=Cc3c([C@H](C)O)cc(nc3[C@H]2O)C(=O)O[C@@H]4C)n1)C(=O)NC(=CNC(=O)c1cccc(C(C)=O)c1)C(N)=O [RJS-05]
[1]; [5]
  MIC: 1 µg/mL (≈ 0.548 µM)
E. coli ATCC 25922; [6]
  MIC: > 64 µg/mL
[2]; [7]
  MIC: 0.004 µg/mL (≈ 0.00219 µM)
S. pyogenes ATCC 19615; [8]
  MIC: 0.004 µg/mL (≈ 0.00219 µM)
E. faecium MMX 485 VRE; [9]
  MIC: 0.5 µg/mL (≈ 0.274 µM)
E. faecalis MMX 486 VRE; [10]
  MIC: 1 µg/mL (≈ 0.548 µM)
E. faecium MMX 708 VSE; [11]
  MIC: 1 µg/mL (≈ 0.548 µM)
[3]; [12]
  MIC: 1 µg/mL (≈ 0.548 µM)
S. aureus MMX 8088 MRSA; [13]
  MIC: 2 µg/mL (≈ 1.1 µM)
[4]; aqueous 10 mM MOPS buffer
  solubility at 24 h: 1.1 µg/mL (≈ 0.602 µM)

## C=C(NC(=O)c1csc(C2=N[C@@H]3c4csc(n4)[C@H]4NC(=O)c5csc(n5)[C@H]([C@](C)(O)[C@@H](C)O)NC(=O)C5CSC(=N5)/C(=C/C)NC(=O)[C@H]([C@@H](C)O)NC(=O)c5csc(n5)[C@]3(CC2)NC(=O)[C@H](C)NC(=O)C(=C)NC(=O)[C@H](C)NC(=O)[C@H]([C@@H](C)CC)N[C@@H]2C=Cc3c([C@H](C)O)cc(nc3[C@H]2O)C(=O)O[C@@H]4C)n1)C(=O)NC(=CNC(=O)c1ccccc1)C(N)=O [RJS-02]
[1]
  MIC: 1 µg/mL (≈ 0.561 µM)
E. coli ATCC 25922
  MIC: > 64 µg/mL
[2]
  MIC: 0.008 µg/mL (≈ 0.00448 µM)
S. pyogenes ATCC 19615
  MIC: 0.002 µg/mL (≈ 0.00112 µM)
E. faecium MMX 485 VRE; VRE
  MIC: 0.5 µg/mL (≈ 0.28 µM)
E. faecalis MMX 486 VRE; VRE
  MIC: 1 µg/mL (≈ 0.561 µM)
E. faecium MMX 708 VSE
  MIC: 0.5 µg/mL (≈ 0.28 µM)
[3]
  MIC: 1 µg/mL (≈ 0.561 µM)
S. aureus MMX 8088 MRSA; MRSA
  MIC: 2 µg/mL (≈ 1.12 µM)
[4]
  solubility at 24 h: < 1 µg/mL

## C=C(NC(=O)c1csc(C2=N[C@@H]3c4csc(n4)[C@H]4NC(=O)c5csc(n5)[C@H]([C@](C)(O)[C@@H](C)O)NC(=O)C5CSC(=N5)/C(=C/C)NC(=O)[C@H]([C@@H](C)O)NC(=O)c5csc(n5)[C@]3(CC2)NC(=O)[C@H](C)NC(=O)C(=C)NC(=O)[C@H](C)NC(=O)[C@H]([C@@H](C)CC)N[C@@H]2C=Cc3c([C@H](C)O)cc(nc3[C@H]2O)C(=O)O[C@@H]4C)n1)C(=O)NC(=CNC(=O)COC)C(N)=O [RJS-06]
[1]; [5]
  MIC: 1 µg/mL (≈ 0.571 µM)
E. coli ATCC 25922; [6]
  MIC: > 64 µg/mL
[2]; [7]
  MIC: 0.015 µg/mL (≈ 0.00856 µM)
S. pyogenes ATCC 19615; [8]
  MIC: 0.008 µg/mL (≈ 0.00457 µM)
E. faecium MMX 485 VRE; [9]
  MIC: 0.5 µg/mL (≈ 0.285 µM)
E. faecalis MMX 486 VRE; [10]
  MIC: 1 µg/mL (≈ 0.571 µM)
E. faecium MMX 708 VSE; [11]
  MIC: 1 µg/mL (≈ 0.571 µM)
[3]; [12]
  MIC: 0.5 µg/mL (≈ 0.285 µM)
S. aureus MMX 8088 MRSA; [13]
  MIC: 1 µg/mL (≈ 0.571 µM)
[4]; aqueous 10 mM MOPS buffer
  solubility at 24 h: 28 µg/mL (≈ 16 µM)

— patent US20220315624A1, “THIOSTREPTON ANALOGS AND METHODS OF MAKING AND USING SAME” (YALE UNIVERSITY, priority 2019, published 2022)
